Measurements: patent publication US11634396B2 (priority 2021, dated 2023)
Where two headings read alike, the source gives them in different places.

Legend:
human mOR = human mOR (Homo sapiens (Human), UniProt P35372); assay: cell-based
kOR (OPRK1) = kOR (OPRK1) (Homo sapiens (Human), UniProt P41145); assay: KOR β-Arrestin antagonist assay (Tango OPRK1-bla U2OS cells); format: cell-based
Text: KOR β-Arrestin Agonist and Antagonist assays were preformed using the Tango™ OPRK1-bla U2OS cells from Invitrogen and purchased from ThermoFisher, catalog number K1576.

human dOR = human dOR (Homo sapiens (Human), UniProt P41143); assay: cell-based
[1] = CHO Tag-lite human mOR stable cell line, forskolin 4 μM and DAMGO at EC90, read-out: mOR cAMP Antagonist Assay IC50
[2] = dOR cAMP Agonist Assay EC50, CHO Tag-lite human dOR stable cell line, forskolin

Chain of kOR (OPRK1) (P41145 whole entry): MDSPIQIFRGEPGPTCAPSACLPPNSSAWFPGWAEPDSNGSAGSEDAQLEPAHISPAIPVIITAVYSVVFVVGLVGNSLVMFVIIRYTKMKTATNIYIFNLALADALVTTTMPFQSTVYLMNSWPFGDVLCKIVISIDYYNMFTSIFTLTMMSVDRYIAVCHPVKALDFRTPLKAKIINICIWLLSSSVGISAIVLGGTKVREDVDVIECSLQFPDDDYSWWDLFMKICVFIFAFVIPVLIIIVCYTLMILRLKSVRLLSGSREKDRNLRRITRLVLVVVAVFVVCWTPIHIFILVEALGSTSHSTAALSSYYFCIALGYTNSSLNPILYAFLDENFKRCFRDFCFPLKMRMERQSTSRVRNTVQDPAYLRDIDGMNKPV
Chain of human mOR (P35372 whole entry): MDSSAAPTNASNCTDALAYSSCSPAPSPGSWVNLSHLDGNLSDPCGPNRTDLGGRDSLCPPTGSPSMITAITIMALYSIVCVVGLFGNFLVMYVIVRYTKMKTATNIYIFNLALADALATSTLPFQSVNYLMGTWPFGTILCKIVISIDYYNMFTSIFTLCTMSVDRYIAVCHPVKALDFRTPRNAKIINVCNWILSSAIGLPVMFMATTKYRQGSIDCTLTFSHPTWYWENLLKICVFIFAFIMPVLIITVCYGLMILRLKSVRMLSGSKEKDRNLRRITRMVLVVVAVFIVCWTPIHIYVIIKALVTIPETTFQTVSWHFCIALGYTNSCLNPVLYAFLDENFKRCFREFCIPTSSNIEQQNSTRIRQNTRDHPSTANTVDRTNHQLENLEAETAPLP
Chain of human dOR (P41143 whole entry): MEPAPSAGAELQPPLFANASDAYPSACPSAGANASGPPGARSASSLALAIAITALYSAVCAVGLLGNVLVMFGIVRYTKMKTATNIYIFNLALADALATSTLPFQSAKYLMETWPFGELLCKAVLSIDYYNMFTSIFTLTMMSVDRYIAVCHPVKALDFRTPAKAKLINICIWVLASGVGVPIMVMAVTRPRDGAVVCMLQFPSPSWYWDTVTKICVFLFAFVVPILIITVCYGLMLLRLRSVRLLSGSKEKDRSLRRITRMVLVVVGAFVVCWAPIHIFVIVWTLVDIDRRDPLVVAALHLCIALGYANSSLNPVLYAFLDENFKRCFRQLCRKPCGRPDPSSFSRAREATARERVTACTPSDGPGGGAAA

Row | SMILES | IC50 (human mOR; [1]) | IC50 (kOR (OPRK1)) | IC50 (human mOR) | EC50 (human dOR; [2]) | other results
1 | Cc1cc(C(N)=O)cc(C)c1C[C@@H](CNC(=O)C1CC1c1ncccn1)N(C)C (stereo partly drawn) [Compound 6, 4-((2S)-2-(dimethylamino)-3-(2-(pyrimidin-2-yl)cyclopropane-1-carboxamido)propyl)-3,5-dimethylbenzamide] | 300 to 3000 nM | 300 to 3000 nM | – | – | –
2 | Cc1ccc([C@H](CC(=O)NC[C@H](Cc2ccc(C(N)=O)c(F)c2Cl)N(C)C)C2(C(F)(F)F)CC2)cn1 [Compound 17, 3-chloro-4-[(2S)-2-(dimethylamino)-3-[(3S)-3-(6-methylpyridin-3-yl)-3-[1-(trifluoromethyl)cyclopropyl]propanamido]propyl]-2-fluorobenzamide] | > 3000 nM | < 300 nM | – | – | –
3 | CN(C)[C@H](CNC(=O)C[C@H](c1cccnc1)C1(C(F)(F)F)CC1)Cc1ccc(C(N)=O)c(F)c1Cl [Compound 18, 3-chloro-4-[(2S)-2-(dimethylamino)-3-[(3R)-3-(pyridin-3-yl)-3-[1-(trifluoromethyl)cyclopropyl]propanamido]propyl]-2-fluorobenzamide] | – | < 300 nM | > 3000 nM | – | –
4 | CN(C)[C@H](CNC(=O)CC(c1ncc(Cl)cn1)C1(C(F)(F)F)CC1)Cc1ccc(C(N)=O)c(F)c1Cl (stereo partly drawn) [Compound 22, 3-chloro-4-[(2S)-3-[3-(5-chloropyrimidin-2-yl)-3-[1-(trifluoromethyl)cyclopropyl]propanamido]-2-(dimethylamino)propyl]-2-fluorobenzamide] | < 300 nM | < 300 nM | – | – | –
5 | Cc1ncc([C@@H](CC(=O)NC[C@H](Cc2ccc(C(N)=O)cc2Cl)N(C)C)C2(C(F)(F)F)CC2)cn1 [Compound 24, 3-chloro-4-[(2S)-2-(dimethylamino)-3-[(3R)-3-(2-methylpyrimidin-5-yl)-3-[1-(trifluoromethyl)cyclopropyl]propanamido]propyl]benzamide] | – | < 300 nM | < 300 nM | – | –
6 | Cc1ncc([C@@H](CC(=O)NC[C@H](Cc2ccc(C(N)=O)cc2Cl)N(C)C)C2CC2)cn1 [Compound 25, 3-chloro-4-[(2S)-3-[(3S)-3-cyclopropyl-3-(2-methylpyrimidin-5-yl)propanamido]-2-(dimethylamino)propyl]benzamide] | – | 300 to 3000 nM | < 300 nM | – | –
7 | CN(C)[C@H](CNC(=O)C[C@H](c1cccnc1)C1(C(F)(F)F)CC1)Cc1ccc(C(N)=O)cc1Cl [Compound 28, 3-chloro-4-((S)-2-(dimethylamino)-3-((R)-3-(pyridin-3-yl)-3-(1-(trifluoromethyl)cyclopropyl)propanamido)propyl)benzamide] | – | < 300 nM | < 300 nM | – | –
8 | CN(C)[C@H](CNC(=O)CC(c1ccc(C(F)(F)F)nc1)C1(C(F)(F)F)CC1)Cc1ccc(C(N)=O)cc1Cl (stereo partly drawn) [Compound 32, 3-chloro-4-[(2S)-2-(dimethylamino)-3-{3-[1-(trifluoromethyl)cyclopropyl]-3-[6-(trifluoromethyl)pyridin-3-yl]propanamido}propyl]benzamide] | < 300 nM | < 300 nM | – | – | –
9 | COc1ncc(C(CC(=O)NC[C@H](Cc2ccc(C(N)=O)cc2Cl)N(C)C)C2(C(F)(F)F)CC2)cn1 (stereo partly drawn) [Compound 33, 3-chloro-4-[(2S)-2-(dimethylamino)-3-[3-(2-methoxypyrimidin-5-yl)-3-[1-(trifluoromethyl)hydropropyl]propanamido]propyl]benzamide] | – | < 300 nM | < 300 nM | – | –
10 | Cc1ncc(C(CC(=O)NC[C@H](Cc2ccc(C(N)=O)cc2Cl)N(C)C)C2(C(F)(F)F)CC2)cn1 (stereo partly drawn) [Compound 34, 3-chloro-4-[(2S)-2-(dimethylamino)-3-[3-(2-methylpyrimidin-5-yl)-3-[1-(trifluoromethyl)cyclopropyl]propanamido]propyl]benzamide] | – | < 300 nM | < 300 nM | – | –
11 | COc1ccc(C(CC(=O)NC[C@H](Cc2ccc(C(N)=O)cc2Cl)N(C)C)C2(C(F)(F)F)CC2)cn1 (stereo partly drawn) [Compound 35, 3-chloro-4-[(2S)-2-(dimethylamino)-3-[3-(6-methoxypyridin-3-yl)-3-[1-(trifluoromethyl)cyclopropyl]propanamido]propyl]benzamide] | – | < 300 nM | < 300 nM | – | –
12 | CNC(=O)c1ccc(C[C@@H](CNC(=O)C[C@@H](c2ccc(Cl)cn2)C2(C(F)(F)F)CC2)N(C)C)c(C)c1 [Compound 137, 4-((S)-3-((R)-3-(5-chloropyridin-2-yl)-3-(1-(trifluoromethyl)cyclopropyl)propanamido)-2-(dimethylamino)propyl)-N,3-dimethylbenzamide] | – | < 300 nM | – | – | –
13 | CNC(=O)c1ccc(C[C@@H](CNC(=O)C[C@H](c2ccc(Cl)cn2)C2(C(F)(F)F)CC2)N(C)C)c(C)c1 [Compound 138, 4-((S)-3-((S)-3-(5-chloropyridin-2-yl)-3-(1-(trifluoromethyl)cyclopropyl)propanamido)-2-(dimethylamino)propyl)-N,3-dimethylbenzamide] | – | < 300 nM | – | – | –
14 | CC(C)[C@@H](CC(=O)NC[C@H](Cc1ccc2c(c1)CC(=O)N2)N(C)C)c1ccccc1 [Compound 182, (R)-N-((S)-2-(dimethylamino)-3-(2-oxoindolin-5-yl)propyl)-4-methyl-3-phenylpentanamide] | > 3000 nM | – | – | > 3000 nM | –
15 | CC(C)C[C@@H](CC(=O)NC[C@H](Cc1ccc2c(c1)CC(=O)N2)N(C)C)c1ccccc1 [Compound 183, (S)-N-((S)-2-(dimethylamino)-3-(2-oxoindolin-5-yl)propyl)-5-methyl-3-phenylhexanamide] | – | – | < 300 nM | > 3000 nM | –
16 | CN(C)[C@H](CNC(=O)C[C@@H](c1ccccc1)C1CC1)Cc1ccc2c(c1)CC(=O)N2 [Compound 186, (R)-3-cyclopropyl-N-((S)-2-(dimethylamino)-3-(2-oxoindolin-5-yl)propyl)-3-phenylpropanamide] | – | – | < 300 nM | 300 to 3000 nM | –
17 | C[C@@H](CC(=O)NC[C@H](Cc1ccc2c(c1)OCC(=O)N2)N(C)C)c1ccccc1 [Compound 187, (S)-N-((S)-2-(dimethylamino)-3-(3-oxo-3,4-dihydro-2H-benzo[b][1,4]oxazin-7-yl)propyl)-3-phenylbutanamide] | – | – | < 300 nM | < 300 nM | –
18 | CC(C)C[C@@H](CC(=O)NC[C@H](Cc1ccc2[nH]ncc2c1)N(C)C)c1ccccc1 [Compound 214, (S)-N-((S)-2-(dimethylamino)-3-(1H-indazol-5-yl)propyl)-5-methyl-3-phenylhexanamide] | < 300 nM | – | – | < 300 nM | –
19 | C[C@H](CC(=O)NC[C@H](Cc1ccc2[nH]ncc2c1)N(C)C)c1cccc(F)c1 [Compound 215, (R)-N-((S)-2-(dimethylamino)-3-(1H-indazol-5-yl)propyl)-3-(3-fluorophenyl)butanamide] | < 300 nM | – | – | 300 to 3000 nM | –
20 | C[C@@H](CC(=O)NC[C@H](Cc1ccc2[nH]ncc2c1)N(C)C)c1ccccn1 [Compound 216, (S)-N-((S)-2-(dimethylamino)-3-(1H-indazol-5-yl)propyl)-3-(pyridin-2-yl)butanamide] | < 300 nM | – | – | 300 to 3000 nM | –
21 | Cc1ccc([C@@H](C)CC(=O)NC[C@H](Cc2ccc3[nH]ncc3c2)N(C)C)cc1 [Compound 217, (S)-N-((S)-2-(dimethylamino)-3-(1H-indazol-5-yl)propyl)-3-(p-tolyl)butanamide] | < 300 nM | – | – | 300 to 3000 nM | –
22 | C[C@@H](CC(=O)NC[C@H](Cc1ccc2[nH]ncc2c1)N(C)C)c1ccc(F)cc1 [Compound 218, (S)-N-((S)-2-(dimethylamino)-3-(1H-indazol-5-yl)propyl)-3-(4-fluorophenyl)butanamide] | – | – | < 300 nM | > 3000 nM | –
23 | CC(C)[C@@H](CC(=O)NC[C@H](Cc1ccc2[nH]ncc2c1)N(C)C)c1ccccc1 [Compound 219, (R)-N-((S)-2-(dimethylamino)-3-(1H-indazol-5-yl)propyl)-4-methyl-3-phenylpentanamide] | < 300 nM | – | – | 300 to 3000 nM | –
24 | C[C@@H](CC(=O)NC[C@H](Cc1ccc2[nH]ncc2c1)N(C)C)c1ccc(Cl)cc1 [Compound 220, (S)-3-(4-chlorophenyl)-N-((S)-2-(dimethylamino)-3-(1H-indazol-5-yl)propyl)butanamide] | – | – | < 300 nM | > 3000 nM | –
25 | CN(C)[C@H](CNC(=O)CC(C)(C)c1ccccc1)Cc1ccc2[nH]ncc2c1 [Compound 221, (S)-N-(2-(dimethylamino)-3-(1H-indazol-5-yl)propyl)-3-methyl-3-phenylbutanamide] | – | – | < 300 nM | > 3000 nM | –
26 | CN(C)[C@H](CNC(=O)C[C@H](c1ccccc1)C1CC1)Cc1ccc(O)cc1Cl [Compound 263, (S)-N-((S)-3-(2-chloro-4-hydroxyphenyl)-2-(dimethylamino)propyl)-3-cyclopropyl-3-phenylpropanamide] | – | – | < 300 nM | < 300 nM | –
27 | CC(=O)Oc1ccc(C[C@@H](CNC(=O)C[C@H](C)c2ccccc2)N(C)C)cc1Cl [Compound 275, 2-chloro-4-((S)-2-(dimethylamino)-3-((S)-3-phenylbutanamido)propyl)phenyl acetate] | – | – | < 300 nM | < 300 nM | –
28 | CN1Cc2cc(O)ccc2C[C@H]1CNC(=O)C[C@H](c1ccccc1)C(C)(C)C [Compound 323, (S)-N-(((S)-7-hydroxy-2-methyl-1,2,3,4-tetrahydroisoquinolin-3-yl)methyl)-4,4-dimethyl-3-phenylpentanamide] | – | – | < 300 nM | < 300 nM | –
29 | CC(C)C[C@H](CC(=O)NC[C@H](Cc1ccc(-c2cn[nH]c2)cc1Cl)N(C)C)c1ccccc1 [Compound 326, (3R)-N-[(2S)-3-[2-chloro-4-(1H-pyrazol-4-yl)phenyl]-2-(dimethylamino)propyl]-5-methyl-3-phenylhexanamide] | – | – | – | – | EC50 (human dOR; read-out: dOR cAMP Agonist Assay EC50): > 3000 nM; IC50 (human mOR; read-out: mOR cAMP Antagonist Assay IC50): 300 to 3000 nM
